The text below walks through data of ChEMBL document CHEMBL2057159, “Methylation of imidazoline related compounds leads to loss of α₂-adrenoceptor affinity. Synthesis and biological evaluation of selective I₁ imidazoline receptor ligands” (Bioorg Med Chem, 2012).

Molecules are shown by their SMILES. Active and inactive are the calls of the source. No cut-off for these calls is given here.

For one data set, the target named is Nischarin (Rattus norvegicus, UniProt Q4G017). Nature of the data set: Displacement of [125I]paraiodoclonidine from imidazoline I1 receptor in rat PC12 cells after 30 mins by gamma counter. (Loss of bound radioactivity is the signal in a displacement assay; it reports binding, not function.)
Data set [1] concerns Rattus norvegicus. The experiment in a line: Hypotensive activity in spontaneous hypertensive rat assessed as decrease in mean blood pressure at 10 mg/kg, iv measured continuously during 30 mins. The class given is functional, organism-based. Details: dose 10 mg/kg.
Data set [2] addresses T1, Alpha-2B adrenergic receptor (Homo sapiens, UniProt P18089).
T1 sequence (P18089 whole entry): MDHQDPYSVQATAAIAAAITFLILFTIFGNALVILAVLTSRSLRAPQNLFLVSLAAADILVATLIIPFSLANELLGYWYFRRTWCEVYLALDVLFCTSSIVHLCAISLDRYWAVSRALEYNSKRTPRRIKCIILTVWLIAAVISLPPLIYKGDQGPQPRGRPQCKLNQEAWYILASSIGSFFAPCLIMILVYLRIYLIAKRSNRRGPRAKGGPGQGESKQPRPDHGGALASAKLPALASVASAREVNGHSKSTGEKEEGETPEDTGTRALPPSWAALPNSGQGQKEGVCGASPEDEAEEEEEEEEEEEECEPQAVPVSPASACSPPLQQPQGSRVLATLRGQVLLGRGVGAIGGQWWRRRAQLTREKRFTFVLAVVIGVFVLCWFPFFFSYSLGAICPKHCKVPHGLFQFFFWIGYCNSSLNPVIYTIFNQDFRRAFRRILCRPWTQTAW
The experiment in a line: Displacement of [3H]RX821001 from human alpha2B adrenoceptor expressed in CHO cells after 60 mins by gamma counter. The class given is cell-based.

Data set [3] is described as follows: Displacement of [3H]idazoxan from imidazoline I2 receptor in New Zealand rabbit renal cortex homogenate after 60 mins […]. Details: species or system Oryctolagus cuniculus.
In data set [4] the test system is Rattus norvegicus. Nature of the data set: Toxicity in spontaneous hypertensive rat assessed as vasoconstrictive activity at 1 mg/kg, iv. The class given is organism-based. Details: dose 1 mg/kg, route intravenous. The settings on record: in vivo.
Data set [5] addresses T2, Alpha-2C adrenergic receptor (Homo sapiens, UniProt P18825).
T2 sequence (P18825 whole entry): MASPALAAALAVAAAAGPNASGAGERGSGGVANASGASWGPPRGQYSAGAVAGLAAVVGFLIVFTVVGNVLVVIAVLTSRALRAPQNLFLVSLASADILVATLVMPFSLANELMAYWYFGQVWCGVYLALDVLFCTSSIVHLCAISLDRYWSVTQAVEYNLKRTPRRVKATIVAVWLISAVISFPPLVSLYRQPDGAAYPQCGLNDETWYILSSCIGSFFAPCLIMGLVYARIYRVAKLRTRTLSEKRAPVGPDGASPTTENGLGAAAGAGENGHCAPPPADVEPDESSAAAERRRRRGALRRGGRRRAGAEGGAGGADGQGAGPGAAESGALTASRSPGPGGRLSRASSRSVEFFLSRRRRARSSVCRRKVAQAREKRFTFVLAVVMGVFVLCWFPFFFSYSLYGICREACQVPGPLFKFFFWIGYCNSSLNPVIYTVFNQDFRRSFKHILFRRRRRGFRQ
Nature of the data set: Displacement of [3H]RX821001 from human alpha2C adrenoceptor expressed in CHO cells after 60 mins […]. Format: cell-based.

Data set [6] has as its target T3, Alpha-2A adrenergic receptor (Homo sapiens, UniProt P08913).
T3 sequence (P08913 whole entry): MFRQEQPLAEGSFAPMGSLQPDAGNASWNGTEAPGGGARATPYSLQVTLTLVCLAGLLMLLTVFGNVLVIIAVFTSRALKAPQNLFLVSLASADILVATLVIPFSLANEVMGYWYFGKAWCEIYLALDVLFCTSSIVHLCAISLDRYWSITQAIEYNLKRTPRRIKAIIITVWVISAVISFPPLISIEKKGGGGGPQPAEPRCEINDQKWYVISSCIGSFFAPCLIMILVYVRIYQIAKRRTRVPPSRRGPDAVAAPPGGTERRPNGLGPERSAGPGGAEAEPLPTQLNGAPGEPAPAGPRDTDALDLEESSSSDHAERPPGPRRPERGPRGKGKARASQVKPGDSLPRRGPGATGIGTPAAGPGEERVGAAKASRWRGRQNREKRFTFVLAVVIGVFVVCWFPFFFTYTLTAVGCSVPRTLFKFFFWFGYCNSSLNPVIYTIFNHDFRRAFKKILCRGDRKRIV
The experiment in a line: Displacement of [3H]RX821001 from human alpha2A adrenoceptor expressed in CHO cells after 60 mins […]. The class given is cell-based.

For data set [7], the target named is T4, Alpha-2A adrenergic receptor (Homo sapiens) (UniProt P08913).
T4 sequence (whole entry): T3 sequence (P08913 whole entry)
The experiment in a line: Selectivity ratio of compound to rilmenidine for human alpha2A adrenoceptor expressed in CHO cells after 60 mins […]. Format: cell-based.

The target in data set [8] is T5, Alpha-2B adrenergic receptor (Homo sapiens) (UniProt P18089).
T5 sequence (whole entry): T1 sequence (P18089 whole entry)
Nature of the data set: Selectivity ratio of compound to rilmenidine for human alpha2B adrenoceptor expressed in CHO cells after 60 mins […]. The class given is cell-based.

For data set [9], the target named is T6, Alpha-2C adrenergic receptor (Homo sapiens) (UniProt P18825).
T6 sequence (whole entry): T2 sequence (P18825 whole entry)
The experiment in a line: Selectivity ratio of compound to rilmenidine for human alpha2C adrenoceptor expressed in CHO cells after 60 mins […]. Format: cell-based.

Data set [10] concerns PC-12. The experiment in a line: Selectivity ratio of pKi for human alpha2A adrenoceptor to pKi for imidazoline I1 receptor in rat PC12 cell. The class given is cell-based.
Data set [11] concerns PC-12. Nature of the data set: Selectivity ratio of pKi for human alpha2C adrenoceptor to pKi for imidazoline I1 receptor in rat PC12 cell. Format: cell-based.
Data set [12] concerns PC-12. The experiment in a line: Selectivity ratio of pKi for imidazoline I2 receptor in New Zealand rabbit renal cortex to pKi for imidazoline I1 receptor in rat PC12 cell. Format: cell-based.
Data set [13] relates to PC-12. Nature of the data set: Selectivity ratio of pKi for human alpha2B adrenoceptor to pKi for imidazoline I1 receptor in rat PC12 cell. Format: cell-based.
The test system of data set [14] is Rattus norvegicus. Nature of the data set: Hypotensive activity in spontaneous hypertensive rat assessed as decrease in mean blood pressure at 1 mg/kg, iv measured after 5 mins relative to control. The class given is functional. Details: scale not given: the % may be the effect or the level left.

Sequence of Nischarin (Q4G017 whole entry): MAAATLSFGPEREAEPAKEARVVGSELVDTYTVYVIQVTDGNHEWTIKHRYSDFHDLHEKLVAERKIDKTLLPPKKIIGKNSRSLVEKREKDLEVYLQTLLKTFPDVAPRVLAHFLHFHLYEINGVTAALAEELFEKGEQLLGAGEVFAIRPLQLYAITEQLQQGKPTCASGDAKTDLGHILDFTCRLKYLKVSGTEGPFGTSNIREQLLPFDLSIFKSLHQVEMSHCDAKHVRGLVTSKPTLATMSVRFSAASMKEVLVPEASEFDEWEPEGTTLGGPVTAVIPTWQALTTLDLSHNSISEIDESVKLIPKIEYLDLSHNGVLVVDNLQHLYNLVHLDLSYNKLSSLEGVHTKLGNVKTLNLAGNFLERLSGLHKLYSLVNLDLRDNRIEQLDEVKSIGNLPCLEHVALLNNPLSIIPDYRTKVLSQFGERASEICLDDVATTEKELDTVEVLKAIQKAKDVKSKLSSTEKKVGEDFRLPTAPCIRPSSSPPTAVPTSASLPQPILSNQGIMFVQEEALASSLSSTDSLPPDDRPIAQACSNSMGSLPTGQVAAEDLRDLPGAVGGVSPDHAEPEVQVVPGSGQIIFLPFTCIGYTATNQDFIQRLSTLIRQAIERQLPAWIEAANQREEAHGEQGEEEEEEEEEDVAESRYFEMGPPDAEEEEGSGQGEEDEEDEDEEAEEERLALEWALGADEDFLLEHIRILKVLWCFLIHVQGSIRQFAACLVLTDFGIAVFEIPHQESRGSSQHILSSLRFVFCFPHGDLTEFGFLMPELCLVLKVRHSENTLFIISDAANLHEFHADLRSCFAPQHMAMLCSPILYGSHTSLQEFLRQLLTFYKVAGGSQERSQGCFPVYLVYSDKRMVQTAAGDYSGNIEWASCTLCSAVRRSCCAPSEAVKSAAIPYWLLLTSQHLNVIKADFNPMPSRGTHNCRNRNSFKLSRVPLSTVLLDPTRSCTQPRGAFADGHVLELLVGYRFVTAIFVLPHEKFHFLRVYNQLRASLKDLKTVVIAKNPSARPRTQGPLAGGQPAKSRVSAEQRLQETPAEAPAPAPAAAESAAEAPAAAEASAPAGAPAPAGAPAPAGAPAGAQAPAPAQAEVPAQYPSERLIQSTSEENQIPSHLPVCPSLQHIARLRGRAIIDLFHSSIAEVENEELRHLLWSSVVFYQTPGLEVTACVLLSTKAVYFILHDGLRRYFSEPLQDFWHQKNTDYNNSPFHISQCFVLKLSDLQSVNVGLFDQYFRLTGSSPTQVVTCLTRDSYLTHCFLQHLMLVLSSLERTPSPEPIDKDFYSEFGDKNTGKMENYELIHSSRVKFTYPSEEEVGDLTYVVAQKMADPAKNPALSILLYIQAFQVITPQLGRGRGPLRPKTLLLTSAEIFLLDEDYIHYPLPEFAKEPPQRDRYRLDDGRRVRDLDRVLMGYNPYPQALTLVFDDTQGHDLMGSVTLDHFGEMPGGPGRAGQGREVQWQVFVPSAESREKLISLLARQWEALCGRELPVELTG

In the case of `CC1CCC(Nc2ccccc2Cl)=N1` (centres undefined), the Ki – broadly, the dissociation constant of the complex between target and ligand, obtained from inhibition or displacement – on Nischarin was 0.132 µM; in data set [2], above 10 µM; in data set [5], above 10 µM; in [6], above 10 µM. For the same molecule, in the data set with Rattus norvegicus [1], the result was inactive. The pKi – broadly, −log10 of the Ki, conventionally taken in molar units – in [3] is on record as below 5. Further, the Activity entry in the data set on Rattus norvegicus [4] is reported as “Non-toxic”.

As to `Clc1cccc(Cl)c1NC1=NCCN1` [CLONIDINE], at Nischarin, the Ki is 0.282 µM. In [3], this molecule registered a pKi below 5.

In the case of `C1COC(NC(C2CC2)C2CC2)=N1` [RILMENIDINE], the results for the inhibition constant (Ki) in [2], in [5] and in data set [6] were 0.0427 µM, 0.0126 µM and 0.0363 µM, respectively. The molecule also registered a negative-log Ki (pKi) in data set [3] below 5.

Turning to `CC1COC(NC(C2CC2)C2CC2)=N1` (centres undefined), the inhibition constant (Ki) on Nischarin was 0.363 µM; in [2], 2.82 µM; in data set [5], above 10 µM; in [6], 4.9 µM. In the data set on Rattus norvegicus [1], the outcome was inactive. The Ratio in data set [7] was 135; in data set [8], 66; in data set [9] it was above 794. In data set [3], the negative logarithm of the Ki (pKi) is listed as below 5. For the same molecule, in the data set on Rattus norvegicus [4], the Activity result is “Non-toxic”.

With `CC1CCC(Nc2ccc(I)cc2Cl)=N1` (centres undefined), the Ratio pKi was 11700 with PC-12 [10], above 45700 in the data set with PC-12 [11], above 45700 in the data set with PC-12 [12] and 19100 with PC-12 [13]. The pKi in [3] is below 5.

As for `Clc1ccccc1NC1=NCCC1`, the Ki at Nischarin was 0.0776 µM; in data set [2], 0.933 µM; in data set [5], 5.01 µM; in data set [6] it was 3.02 µM. The pKi in [3] is reported as 6.1.

Regarding `CC1CCC(=Nc2ccc(I)cc2Cl)N1` (centres undefined), the Ki at Nischarin was 0.000219 µM; in data set [2], 4.17 µM; in data set [5], above 10 µM; in data set [6], 2.57 µM.

With `CC1CNC(Nc2c(Cl)cccc2Cl)=N1` (centres undefined), the Ki on Nischarin was 0.000933 µM; in data set [2] it was 1.32 µM; in data set [5] it was 5.75 µM; in data set [6], 1.95 µM. Also, in data set [3], the pKi is recorded as below 5. Further, the figures for the Activity entry in the data set on Rattus norvegicus [4] and with Rattus norvegicus [14] were “Non-toxic” and 45%, respectively.
